Measurements from ChEMBL document CHEMBL1125556, “Fluoroquinolones: relationships between structural variations, mammalian cell cytotoxicity, and antimicrobial activity” (J Med Chem, 1992).
≈ marks a conversion by molar mass, not a printed value.

What was measured:
V79 = test: Mammalian cell cytotoxicity test in chinese hamster V79 cells (clonogenic cytotoxicity); format: functional, cell-based
[1] = Antibacterial activity against five Gram-negative bacteria; format: functional
[2] = Cricetulus griseus, V79, read-out: IC50

SMILES | IC50 (V79; [2]) | MIC ([1]; read-out: MIC) | MIC [1] | IC50 (V79; v79)
NC1CCN(c2cc3c(cc2F)c(=O)c(C(=O)O)cn3C2CC2)CC1 | 230 µg/mL (≈ 666 µM) | 0.26 µg/mL (≈ 0.753 µM) | – | –
NC1CCN(c2c(F)c(F)c3c(=O)c(C(=O)O)cn(C4CC4)c3c2F)C1 (stereo not drawn) | 100 µg/mL (≈ 272 µM) | 0.08 µg/mL (≈ 0.218 µM) | – | –
COc1c(N2CCC(N)C2)c(F)cc2c(=O)c(C(=O)O)cn(-c3ccc(F)cc3F)c12 (stereo not drawn) | 290 µg/mL (≈ 669 µM) | 0.35 µg/mL (≈ 0.808 µM) | – | –
NC1CCN(c2nc3c(cc2F)c(=O)c(C(=O)O)cn3C2CC2)C1 (stereo not drawn) | 98 µg/mL (≈ 295 µM) | 0.03 µg/mL (≈ 0.0903 µM) | – | –
COc1c(N2CCCC(N)C2)c(F)cc2c(=O)c(C(=O)O)cn(C3CC3)c12 (stereo not drawn) | 69 µg/mL (≈ 184 µM) | 0.23 µg/mL (≈ 0.613 µM) | – | –
NC1CCCN(c2nc3c(cc2F)c(=O)c(C(=O)O)cn3C2CC2)C1 (stereo not drawn) | 100 µg/mL (≈ 289 µM) | 0.4 µg/mL (≈ 1.15 µM) | – | –
CC1(CN)CCN(c2cc3c(cc2F)c(=O)c(C(=O)O)cn3C2CC2)C1 (stereo not drawn) | 23 µg/mL (≈ 64 µM) | 0.52 µg/mL (≈ 1.45 µM) | – | –
CNCC1(C)CCN(c2c(F)cc3c(=O)c(C(=O)O)cn(C4CC4)c3c2F)C1 (stereo not drawn) | 8 µg/mL (≈ 20.4 µM) | 0.23 µg/mL (≈ 0.588 µM) | – | –
CCNCC1CCN(c2c(F)cc3c(=O)c(C(=O)O)cn(C4CC4)c3c2Cl)C1 (stereo in doubt; 69) | – | – | 0.14 µg/mL (≈ 0.343 µM) | –
NC1CCN(c2nc3c(cc2F)c(=O)c(C(=O)O)cn3C2CC2)CC1 | 100 µg/mL (≈ 289 µM) | 0.23 µg/mL (≈ 0.664 µM) | – | –
CC1(n2cc(C(=O)O)c(=O)c3cc(F)c(N4CCC(N)C4)c(F)c32)CC1 (stereo not drawn) | 160 µg/mL (≈ 440 µM) | 0.3 µg/mL (≈ 0.826 µM) | – | –
CCNCC1CCN(c2c(F)cc3c(=O)c(C(=O)O)cn(C4CC4)c3c2C(F)(F)F)C1 (stereo not drawn) | 120 µg/mL (≈ 272 µM) | 0.6 µg/mL (≈ 1.36 µM) | – | –
NCC1CCN(c2nc3c(cc2F)c(=O)c(C(=O)O)cn3C2CC2)C1 (stereo not drawn) | 51 µg/mL (≈ 147 µM) | 0.14 µg/mL (≈ 0.404 µM) | – | –
COc1c(N2CCC(N)C2)c(F)cc2c(=O)c(C(=O)O)cn(C3CC3)c12 (stereo in doubt; 47) | – | – | 0.07 µg/mL (≈ 0.194 µM) | 44 µg/mL (≈ 122 µM)
CCNCC1CCN(c2c(F)cc3c(=O)c(C(=O)O)cn(C4CC4)c3c2OC)C1 (stereo in doubt; 26d) | 22 µg/mL (≈ 54.5 µM) | 0.26 µg/mL (≈ 0.644 µM) | – | –
CCNCC1CCN(c2c(F)cc3c(=O)c(C(=O)O)cn(-c4ccc(F)cc4F)c3c2Cl)C1 (stereo not drawn) | 130 µg/mL (≈ 271 µM) | 1.05 µg/mL (≈ 2.19 µM) | – | –
NC1CCN(c2cc3c(c(O)c2F)c(=O)c(C(=O)O)cn3C2CC2)C1 (stereo not drawn) | 72 µg/mL (≈ 207 µM) | 0.04 µg/mL (≈ 0.115 µM) | – | –
NC1CCN(c2c(F)cc3c(=O)c(C(=O)O)cn(-c4ccc(F)cc4F)c3c2C(F)(F)F)C1 (stereo not drawn) | 99 µg/mL (≈ 210 µM) | 0.52 µg/mL (≈ 1.1 µM) | – | –
CCNCC1CCN(c2c(F)cc3c(=O)c(C(=O)O)cn(C4CC4)c3c2F)C1 (stereo in doubt; 12) [PD-117558] | 11 µg/mL (≈ 28.1 µM) | 0.05 µg/mL (≈ 0.128 µM) | – | –
NC1CCCN(c2cc3c(cc2F)c(=O)c(C(=O)O)cn3C2CC2)C1 (stereo not drawn) | > 500 µg/mL | 0.91 µg/mL (≈ 2.63 µM) | – | –
CCNCC1CCN(c2c(F)c(NC)c3c(=O)c(C(=O)O)cn(C4CC4)c3c2F)C1 (stereo not drawn) | 53 µg/mL (≈ 126 µM) | 0.69 µg/mL (≈ 1.64 µM) | – | –
CCNCC1CCN(c2cc3c(c(N)c2F)c(=O)c(C(=O)O)cn3C2CC2)C1 (stereo not drawn) | 61 µg/mL (≈ 157 µM) | 0.35 µg/mL (≈ 0.901 µM) | – | –
CCNCC1CCN(c2c(F)cc3c(=O)c(C(=O)O)cn(C4CC4)c3c2Cl)C1 (stereo in doubt; 26c) | – | 0.14 µg/mL (≈ 0.343 µM) | – | 11 µg/mL (≈ 27 µM)
CCNCC1CCN(c2c(F)cc3c(=O)c(C(=O)O)cn(C4CC4)c3c2Cl)C1 (stereo in doubt; 37a) | < 11 µg/mL | – | – | –
CC1CN(c2c(F)cc3c(=O)c(C(=O)O)cn(C4CC4)c3c2Cl)CCN1 (stereo not drawn) | 45 µg/mL (≈ 118 µM) | 0.08 µg/mL (≈ 0.211 µM) | – | –
NC1CCCN(c2c(F)cc3c(=O)c(C(=O)O)cn(C4CC4)c3c2C(F)(F)F)C1 (stereo not drawn) | > 500 µg/mL | 0.52 µg/mL (≈ 1.26 µM) | – | –
COc1c(N2CCCC2)c(F)cc2c(=O)c(C(=O)O)cn(C3CC3)c12 | 150 µg/mL (≈ 433 µM) | 0.3 µg/mL (≈ 0.866 µM) | – | –

SMILES | IC50 (V79; [2]) | MIC ([1]; read-out: MIC) | MIC [1] | IC50 (V79; v79)
NC1CCN(c2c(F)c(F)c3c(=O)c(C(=O)O)cn(C4CC4)c3c2C(F)(F)F)C1 (stereo not drawn) | 190 µg/mL (≈ 455 µM) | 25 µg/mL (≈ 59.9 µM) | – | –
COc1c(N2CCC(C)(N)C2)c(F)cc2c(=O)c(C(=O)O)cn(C3CC3)c12 (stereo not drawn) | 38 µg/mL (≈ 101 µM) | 0.26 µg/mL (≈ 0.693 µM) | – | –
CC1CN(c2c(F)cc3c(=O)c(C(=O)O)cn(C4CC4)c3c2Cl)CC(C)N1 (stereo not drawn) | 140 µg/mL (≈ 355 µM) | 0.23 µg/mL (≈ 0.584 µM) | – | –
CC1(N)CCN(c2c(F)cc3c(=O)c(C(=O)O)cn(-c4ccc(F)cc4F)c3c2C(F)(F)F)C1 (stereo not drawn) | 18 µg/mL (≈ 37.1 µM) | 2.07 µg/mL (≈ 4.26 µM) | – | –
CC1CN(c2c(F)cc3c(=O)c(C(=O)O)cn(-c4ccc(F)cc4F)c3c2C(F)(F)F)CCN1 (stereo not drawn) | > 500 µg/mL | 4.14 µg/mL (≈ 8.53 µM) | – | –
CCNCC1CCN(c2cc3c(cc2F)c(=O)c(C(=O)O)cn3NC)C1 (stereo not drawn) | > 500 µg/mL | 12.5 µg/mL (≈ 34.5 µM) | – | –
NC1CCN(c2c(F)cc3c(=O)c(C(=O)O)cn(C4CC4)c3c2F)C1 (stereo in doubt; 21) | 30 µg/mL (≈ 85.9 µM) | 0.04 µg/mL (≈ 0.115 µM) | – | –
NC1CCN(c2c(F)c(Cl)c3c(=O)c(C(=O)O)cn(C4CC4)c3c2Cl)C1 (stereo not drawn) | > 500 µg/mL | 0.13 µg/mL (≈ 0.325 µM) | – | –
CCNCC1CCN(c2c(F)cc3c(=O)c(C(=O)O)cn(C4CC4)c3c2[N+](=O)[O-])C1 (stereo not drawn) | 67 µg/mL (≈ 160 µM) | 1.05 µg/mL (≈ 2.51 µM) | – | –
NC1CCN(c2cc3c(cc2F)c(=O)c(C(=O)O)cn3C2CC2)C1 (stereo in doubt; 24a) | 72 µg/mL (≈ 217 µM) | 0.09 µg/mL (≈ 0.272 µM) | – | –
CCNCC1CCN(c2c(F)cc3c(=O)c(C(=O)O)cn(CC(F)(F)F)c3c2F)C1 (stereo not drawn) | 58 µg/mL (≈ 134 µM) | 1.82 µg/mL (≈ 4.2 µM) | – | –
CCNCC1CCN(c2c(F)c(C)c3c(=O)c(C(=O)O)cn(C4CC4)c3c2F)C1 (stereo not drawn) | 9 µg/mL (≈ 22.2 µM) | 0.28 µg/mL (≈ 0.691 µM) | – | –
NCC1CCN(c2cc3c(cc2F)c(=O)c(C(=O)O)cn3C2CC2)C1 (stereo not drawn) | 81 µg/mL (≈ 235 µM) | 0.2 µg/mL (≈ 0.579 µM) | – | –
NC1CCN(c2c(F)cc3c(=O)c(C(=O)O)cn(C4CC4)c3c2Cl)C1 (stereo in doubt; 46) [CLINAFLOXACIN] | – | – | 0.03 µg/mL (≈ 0.082 µM) | 26 µg/mL (≈ 71.1 µM)
NC1CCN(c2c(F)cc3c(=O)c(C(=O)O)cn(C4CC4)c3c2C(F)(F)F)C1 (stereo in doubt; 24e) | – | – | 0.2 µg/mL (≈ 0.501 µM) | 300 µg/mL (≈ 751 µM)
CCNCC1CCN(c2c(F)cc3c(=O)c(C(=O)O)cn(C4CC4)c3c2F)C1 (stereo in doubt; 26b) [PD-117558] | – | – | – | 11 µg/mL (≈ 28.1 µM)
O=C(O)c1cn(C2CC2)c2c(F)c(N3CCCC3)c(F)cc2c1=O | 120 µg/mL (≈ 359 µM) | 0.1 µg/mL (≈ 0.299 µM) | – | –
CCNCC1CCN(c2c(F)cc3c(=O)c(C(=O)O)cn(NC)c3c2F)C1 (stereo not drawn) | > 500 µg/mL | 0.26 µg/mL (≈ 0.684 µM) | – | –
NC1CCN(c2c(F)cc3c(=O)c(C(=O)O)cn(C4CC4)c3c2C(F)(F)F)CC1 | 20 µg/mL (≈ 48.4 µM) | 0.26 µg/mL (≈ 0.629 µM) | – | –
Cc1c(F)c(N2CCC(N)C2)c(F)c2c1c(=O)c(C(=O)O)cn2C1CC1 (stereo not drawn) | 11 µg/mL (≈ 30.3 µM) | 0.02 µg/mL (≈ 0.055 µM) | – | –
NC1CCN(c2c(F)cc3c(=O)c(C(=O)O)cn(C4CC4)c3c2Cl)C1 (stereo in doubt; 33a) [CLINAFLOXACIN] | – | – | – | 26 µg/mL (≈ 71.1 µM)
CCNCC1CCN(c2cc3c(cc2F)c(=O)c(C(=O)O)cn3C2CC2)C1 (stereo in doubt; 66) | – | – | – | 160 µg/mL (≈ 428 µM)
CCn1cc(C(=O)O)c(=O)c2cc(F)c(N3CCN(C)CC3)cc21 [PEFLOXACIN] | – | 0.07 µg/mL (≈ 0.21 µM) | – | –
CCNCC1CCN(c2c(F)cc3c(=O)c(C(=O)O)cn(C4CC4)c3c2F)C1 (stereo in doubt; 7) [PD-117558] | – | – | 0.09 µg/mL (≈ 0.23 µM) | –
COc1c(N2CCC(N)C2)c(F)cc2c(=O)c(C(=O)O)cn(C3CC3)c12 (stereo in doubt; 35a) | 45 µg/mL (≈ 125 µM) | – | – | –
NC1CCN(c2c(F)cc3c(=O)c(C(=O)O)cn(C4CC4)c3c2F)C1 (stereo in doubt; 43) | – | – | – | 30 µg/mL (≈ 85.9 µM)
CCNCC1CCN(c2cc3c(cc2F)c(=O)c(C(=O)O)cn3C2CC2)C1 (stereo in doubt; 16) | – | – | 0.46 µg/mL (≈ 1.23 µM) | –
